Here are results for two molecules from patent US12582706B2, “Tolerogenic antigen presenting cells” (Cell4Cure AB, priority 2019, dated 2026).

Experiment [1] deals with CD4^+ T cells. Description: Capacity of DCs to induce CD25^hiFoxp3^+ Tregs in time-extended MLR. Format: cell-based, human. Conditions: Example 13, FIG. 13(H); compared to control DCs. How it is done: (§1) CD14^+ monocytes were cultured at 1.25×10^6 cells/mi for 7 days in GMP DC Medium (CellGenix, Freiburg, Germany) containing HEPES, GlutaMAX and Penicillin-Streptomycin solution (Thermo Fisher, Waltham, MA) in the presence of granulocyte-macrophage colony-stimulating factor (GM-CSF; 100 ng/ml; PeproTech, London, UK) and interleukin-4 (IL-4; 100 ng/ml; PeproTech). Cells were replenished on day 3 with fresh medium and cytokines. Control DCs were differentiated in GM-CSF and IL-4 without addition of any further compounds and optionally further were treated with lipopolysaccharide (LPS; 0.5 ug/ml; Sigma-Aldrich, Saint Louise, MO) or a pro-inflammatory cytokine cocktail consisting of TNFalpha (10 ng/ml; PeproTech), IL-1 beta (10 ng/ml; PeproTech), and prostaglandin E2 (PGE2; 1 ug/ml; Sigma) on day 6 to generate stimulated immunogenic DCs. Tolerogenic DCs (tolDCs) were generated by treatment with various tolerogenic compounds: AhR agonist “C1” (C1; 20 nM; IMA-06201; Immunahr A B, Lund, Sweden) on days 0 and 3, TGFbeta1 (10 or 20 ng/ml; PeproTech) on day 3, and retinoic acid (2 uM; Sigma-Aldrich) on day 6. Control tolDC for comparison were established by treatment with Dexamethasone (Dex; 100 nM; Sigma-Aldrich) and Vitamin D3 (VitD3; 100 nM, StemCell Technologies) on day 3. Phenotypic stability of TolDCs was investigated by addition of LPS (0.5 ug/ml) or a pro-inflammatory cytokine cocktail consisting of TNFalpha (10 ng/ml), IL-1beta (10 ng/ml), PGE2 (1 ug/ml), and for Example 24 also IL-6 (10 ng/ml), for the last 24 hours of culture. On day 7, DCs were harvested and washed extensively before phenotyping and functional assays were performed.
In order to analyse the T cell stimulatory capacity of the generated DC populations, allogeneic MLRs were performed. DC/T cell cultures were carried out in complete medium: RPMI-1640 (Thermo Fisher) containing fetal bovine serum (FBS; 10%; Thermo Fisher), HEPES, GlutaMAX and Penicillin-Streptomycin solution. […] Proliferation was determined by incorporation of ^3H-thymidine for the last 18 hours of culture. […]

Experiment [2] deals with CD4^+ T cells. Description: Capacity of DCs to induce T cell proliferation in allogeneic MLR (3H-thymidine). It is filed as cell-based, human. How it is done: as §1
In order to analyse the T cell stimulatory capacity of the generated DC populations, allogeneic MLRs were performed. DC/T cell cultures were carried out in complete medium: RPMI-1640 (Thermo Fisher) containing fetal bovine serum (FBS; 10%; Thermo Fisher), HEPES, GlutaMAX and Penicillin-Streptomycin solution. T cells (10^5 cells/well) were cultured with DCs at a T cell: DC ratio of 10:1 for 5-7 days. Proliferation was determined by incorporation of ^3H-thymidine for the last 18 hours of culture. For determination of CD4^+CD49b^+LAG3^+ Tr1 cells, cells were phenotyped as described below. For determination of CD25^hiFoxp3^+ Treg induction, the T cells from the MLR cultures were rested for additionally 7 days in complete medium containing IL-2 (20 IU/ml; PeproTech) and then subjected to phenotyping as described below.
Control DCs were differentiated from CD14^+ monocytes by culturing in GM-CSF and IL-4 for 7 days. Control DCs were either unstimulated or stimulated with LPS which was added on day 6 to generate immunogenic control DCs. […] TolDCs for comparison were established by treatment with Dex at 100 nM and VitD3 at 100 nM on day 3. On day 6, some of the DCs were treated with LPS (FIG. 5 (A); black bars) or a pro-inflammatory cytokine cocktail consisting of TNFalpha, IL-1beta and PGE2 (FIG. 5 (B); black bars) to test for phenotypical stability under various conditions. All cells were harvested on day 7 and cocultures with CD4^+ T cells were setup in an MLR setting at a T cell:DC ratio of 10:1. At the end of the 7-day cultures, proliferation of T cells was determined by ^3H-thymidine incorporation.
Various compounds were tested for their capacity to induce a tolerogenic phenotype in DCs. […] AhR agonist C1 (AhR ag) at 10 nM on days 0 and 3, TGFbeta at 10 ng/ml on day 3, and RA at 2 uM on day 6. […]

The test system of experiment [3] is DCs. The experiment is described as follows: DC expression of CD103 (flow cytometry). It is filed as cell-based, human. Conditions: Example 13, FIG. 13(E); compared to control DCs. How it is done: CD14^+ monocytes were cultured at 1.25×10^6 cells/mi for 7 days in GMP DC Medium (CellGenix, Freiburg, Germany) containing HEPES, GlutaMAX and Penicillin-Streptomycin solution (Thermo Fisher, Waltham, MA) in the presence of granulocyte-macrophage colony-stimulating factor (GM-CSF; 100 ng/ml; PeproTech, London, UK) and interleukin-4 (IL-4; 100 ng/ml; PeproTech). Cells were replenished on day 3 with fresh medium and cytokines. […]
Cell surface expression was investigated using the following fluorescently labeled antibodies: CD11c (B-Ly6), CD83 (HB15e), CD86 (BU63), ILT3 (ZM4.1), CD141 (M80), GARP (7611), CD103 (B-Ly7), MERTK (590H11G1E3), BTLA (J168-540), CD49b (P1E6-05), HLA-G (87G), LAP (FNLAP), from BD Biosciences (Franklin Lakes, NJ), BioLegend (San Diego, CA) and Thermo Fisher. DCs were washed and resuspended in staining buffer (phosphate-buffered saline supplemented with 0.5% BSA and 2 mM EDTA) and incubated with antibody for 20 min followed by washing before acquisition on a MACSQuant 10 flow cytometer (Miltenyi Biotec) and analyzed using FlowJo software (BD Biosciences). […]
(Flow cytometry measures light scatter and fluorescence of single cells or particles in a stream.)

The test system of experiment [4] is DCs. The experiment is described as follows: DC tolerogenic index ILT3/CD86 (MFI ratio). Format: cell-based, human. Conditions: Example 13, FIG. 13(D); compared to control DCs. An excerpt:
The optimal tolDCs should express both low levels of co-stimulatory molecules and high levels of tolerogenic molecules. Thus, to take into account the combined effect of this, the ratio between the expression levels of representative tolerogenic and co-stimulatory molecules could be depicted as a proxy for the tolerogenic capacity of a certain subset of tolDCs. FIGS. 4 (A) and (B) show such tolerogenic index, defined as the ILT3/CD86 expression (MFI) ratio, on DCs cultured under various conditions in the absence (FIG. 4 (A); grey bars) or presence of LPS (FIG. 4 (B); black bars).

In another experiment the test system is human DCs. Conditions: cited from earlier work.
Setting [5] is: during DC differentiation and maturation.

Take “TGFbeta: transforming growth factor beta; TGFbeta1 (PeproTech) used in the examples”: in the experiment with CD4^+ T cells [1], the “induction of Tregs (CD4^+CD25^+Foxp3^+)” value was “more Tregs”. Moreover, in the experiment on CD4^+ T cells [2] (Example 13, FIG. 13(G), compared to control DCs), the “induction of T cell proliferation (CPM)” value is “less T cell proliferation”. Moreover, in the experiment with CD4^+ T cells [2] (Example 13, summary), the “effect on the tolerogenic effect of RA” value is reported as “strengthens the tolerogenic effect of RA”. In addition, the “CD103 expression (MFI) on DCs” value with DCs [3] is reported as “slightly higher”. Moreover, the “tolerogenic ratio (ILT3/CD86)” value with DCs [4] is on record as “slightly higher”.

As for `O=Cc1c2c(cc3c1=Nc1ccccc1-3)=Nc1ccccc1-2` [FICZ, 6-formylindolo[3,2-b]carbazole], the “differentiation of naïve T cells into Treg cells by treated DCs” value with human DCs (Jurado-Manzano et al, 2017) is on record as “able to induce the differentiation”. In the experiment on human DCs (setting [5]), the “expression of the enzyme IDO” value is reported as “increased expression of the enzyme IDO”; the “production of pro-inflammatory cytokines” value is “reduced production of pro-inflammatory cytokines such as IL-6 and TNF-alpha”.
